Reference: patent US10301294B2, “Compounds for the treatment of tuberculosis” (priority 2013, dated 2019)

Tests used:
[1] = system: carbon-starved M. tuberculosis H37Rv; experiment: Non-replicating IC90 determination by luciferase (carbon-starved cells); type: cell-based; conditions: luciferase; for IC99 / IC90: Mycobacterium tuberculosis, H37RV; for IC99: 120 h, read-out: Against carbon starved non-replicating Mtb IC99 (uM, luciferase); for IC99 / Against carbon starved non-replicating Mtb IC99 (uM, luciferase): None = inhibition did not reach 99%; for IC90: IC90 given in brackets beside IC99, read-out: Against carbon starved non-replicating Mtb IC90 (in brackets, luciferase)
[2] = system: replicating M. tuberculosis H37Rv; experiment: microbe, parasite or virus in culture; type: cell-based; conditions: None = inhibition did not reach 90%; for IC90: Mycobacterium tuberculosis, H37RV, read-out: Against Replicating Mtb IC90 (uM, GFP)

SMILES | IC99 [1] [µM] | Against Replicating Mtb IC90 (uM, GFP) [2] | Against carbon starved non-replicating Mtb IC99 (uM, luciferase) [1] | IC90 [2] [µM] | IC90 [1] [µM]
COc1cc(-c2nnc(SCc3ccccn3)o2)ccc1F | 16 | None |  |  | 
[N-]=[N+]=NCCOCCNC(=O)CCCOc1ccc(CSc2nnc(-c3ccc(F)cc3)o2)nc1 |  |  | None | 125 | 
[N-]=[N+]=NCCOCCNC(=O)c1ccc(C[S+]([O-])c2nnc(-c3ccc(Cl)cc3)o2)nc1 (stereo not shown) | 62 |  |  | 250 | 
CCOC(=O)CSc1nnc(-c2ccccc2)o1 | 250 |  |  | 500 | 
OCC#CCSc1nnc(-c2ccc(Cl)cc2)o1 | 8 |  |  | 62 | 
Clc1ccc(-c2nnc(SCCC3OCCCO3)o2)cc1 | 8 |  |  | 62 | 
COCCS(=O)(=O)c1nnc(-c2ccc(Cl)cc2)o1 | 250 |  |  | > 500 | 
C#CCCCOc1ccc(C[S+]([O-])c2nnc(-c3ccc(F)cc3)o2)nc1 (stereo not shown) | 31 |  |  | 31 | 
C#CCCCOc1cc(-c2nnc(SCc3ccccn3)o2)ccc1F | 64 | None |  |  | 4
COc1ccccc1-c1nnc(SCc2ccccn2)o1 | 125 | None |  |  | 
CCSc1nnc(-c2ccccc2)o1 | 250 |  |  | 200 | 
c1ccc(-c2nnc(OCc3ccccn3)o2)cc1 |  |  | None | > 500 | 
COCCSc1nnc(-c2cccnc2)o1 |  |  | None | > 500 | 
COCCNc1nnc(-c2ccc(Cl)cc2)o1 |  |  | None | > 500 | 
Oc1ccc(-c2nnc(SCc3ccccn3)o2)cc1 | 62 |  |  | 125 | 
[O-][S+](Cc1ccccn1)c1nnc(-c2ccc(F)cc2)o1 (stereo not shown) |  |  |  | 31 | 
COc1ccc(C[S+]([O-])c2nnc(-c3ccc(F)cc3)o2)nc1 (stereo not shown) |  |  |  | 31 | 
[N-]=[N+]=NCCCOc1ccc(CSc2nnc(-c3ccc(F)cc3)o2)nc1 | 16 |  |  | 31 | 
COCCOc1nnc(-c2ccc(Cl)cc2)o1 | 250 |  |  | > 500 | 
c1cncc(-c2nnc(SCCC3OCCCO3)o2)c1 |  |  | None | > 500 | 
CC(C)(C)c1ccc(CSc2nnc(-c3ccc(Cl)cc3)o2)cc1 | 62 |  |  | 250 | 
c1ccc(-c2nnc(SCC3CC3)o2)cc1 | 31 |  |  | 125 | 

SMILES | IC99 [1] [µM] | Against Replicating Mtb IC90 (uM, GFP) [2] | Against carbon starved non-replicating Mtb IC99 (uM, luciferase) [1] | IC90 [2] [µM] | IC90 [1] [µM]
[N-]=[N+]=NCCOCCNC(=O)CCCOc1ccc(C[S+]([O-])c2nnc(-c3ccc(F)cc3)o2)nc1 (stereo not shown) | 31 |  |  | 125 | 
Fc1ccc(-c2nnc(SCCN3CCN(c4ccccc4)CC3)o2)cc1 |  |  | None | 250 | 4
Fc1ccc(-c2nnc(SCCN3CCCC(F)(F)C3)o2)cc1 | 250 |  |  | 250 | 1
C#CCOc1ccc(-c2nnc([S+]([O-])Cc3ccccn3)o2)cc1 (stereo not shown) | 31 |  |  | 31 | 
COCC[S+]([O-])c1nnc(-c2ccc(Cl)cc2)o1 (stereo not shown) [drawing 196] | 31 |  |  | 31 | 
COCCSc1nnc(-c2ccccc2)o1 [drawing 175] | 16 |  |  | 125 | 
Fc1ccc(CSc2nnc(-c3cccnc3)o2)cc1 | 62 |  |  | > 500 | 
CCCCCCCCCCCCSc1nnc(-c2ccccc2)o1 | 62 |  |  | 125 | 
Fc1ccc(-c2nnc(SCc3ccccn3)o2)cc1 [drawing 215] | 62 |  |  | 31 | 
Cc1ccc(-c2nnc([S+]([O-])Cc3cccc[n+]3[O-])o2)cc1 (stereo not shown) | 62 |  |  | 125 | 
COc1ccc(CSc2nnc(-c3ccc(F)cc3)o2)nc1 |  |  |  | 16 to 31 | 
COc1ccc(-c2nnc(SCc3ccccn3)o2)cc1 | 16 |  |  | 62 | 
[N-]=[N+]=NOCCNC(=O)CCCOc1ccc(-c2nnc([S+]([O-])Cc3ccccn3)o2)cc1 (stereo not shown) | 62 |  |  | 125 | 
c1cc(-c2nnc(SCCC3OCCCO3)o2)ccn1 |  |  | None | > 500 | 
c1ccc(CSc2nnc(-c3cccnc3)o2)nc1 | 250 |  |  | > 500 | 
C#CCCCOc1ccc(CSc2nnc(-c3ccc(F)cc3)o2)nc1 | 16 |  |  | 31 | 
CCOC(=O)COc1ccc(-c2nnc(SCc3ccccn3)o2)cc1 | 31 | None |  |  | 
COC(=O)CCCOc1ccc(CSc2nnc(-c3ccc(F)cc3)o2)nc1 | 31 |  |  | 125 | 
[O-][S+](Cc1ccccn1)c1nnc(-c2ccc(Cl)cc2)o1 (stereo not shown) [drawing 195] | 4 |  |  | 31 | 
COC(=O)c1ccc(C[S+]([O-])c2nnc(-c3ccc(Cl)cc3)o2)nc1 (stereo not shown) | 4 |  |  | 125 | 
COCCS(=O)(=O)c1nnc(-c2ccc(C)cc2)o1 | 8 |  |  | 31 | 
[O-][S+](Cc1ccccc1)c1nnc(-c2ccccc2)o1 (stereo not shown) [drawing 213] | 4 |  |  | 125 | 

SMILES | IC99 [1] [µM] | Against Replicating Mtb IC90 (uM, GFP) [2] | Against carbon starved non-replicating Mtb IC99 (uM, luciferase) [1] | IC90 [2] [µM] | IC90 [1] [µM]
Cc1cccc(CSc2nnc(-c3ccc(Cl)cc3)o2)n1 | 31 |  |  | 62 | 
C#CCCCOc1cc(-c2nnc(SCc3ccccn3)o2)ccc1OC | 16 | None |  |  | 
COC(=O)CCCOc1ccc(-c2nnc(SCc3ccccn3)o2)cc1 | 250 |  |  | 500 | 
Fc1ccc(CCSc2nnc(-c3ccccc3)o2)cc1 | 250 |  |  | 250 | 
Clc1ccc(-c2nnc(OCc3ccccn3)o2)cc1 | 250 |  |  | 250 | 
[N-]=[N+]=NCCOCCNC(=O)CCCOc1ccc(CSc2nnc(-c3ccc(Cl)cc3)o2)nc1 [drawing 237] | 62 |  |  | 62 | 
Clc1ccc(-c2nnc(NCc3ccccn3)o2)cc1 | 125 |  |  | 500 | 
COCCSc1nnc(-c2ccc(Cl)cc2)o1 | 16 |  |  | 50 | 
c1ccc(-c2nnc(SCc3cccnc3)o2)cc1 [drawing 178] | 250 |  |  | 125 | 
c1ccc(-c2nnc(SCCC3OCCCO3)o2)cc1 [drawing 168] | 62 |  |  | 125 | 
OCCn1cc(CSc2nnc(-c3ccc(Cl)cc3)o2)nn1 | 31 |  |  | 62 | 
Clc1ccc(-c2nnc(SCc3cn(Cc4ccccc4)nn3)o2)cc1 [drawing 224] | 16 | None |  |  | 
[O-][S+](Cc1cn(Cc2ccccc2)nn1)c1nnc(-c2ccc(Cl)cc2)o1 (stereo not shown) [drawing 223] | 8 |  |  | 62 | 
Cc1ccc(-c2nnc(SCc3ccccn3)o2)cc1 | 16 |  |  | 31 | 
COc1cccc(-c2nnc(SCc3ccccn3)o2)c1 [drawing 227] | 16 |  |  | 62 | 
COC(=O)c1ccc(CSc2nnc(-c3ccc(Cl)cc3)o2)nc1 | 16 | None |  |  | 
[O-][n+]1ccccc1CSc1nnc(-c2ccccc2)o1 [drawing 194] | 125 |  |  | 62 | 
c1ccc(CSc2nnc(-c3ccncc3)o2)nc1 | 500 |  |  | > 500 | 
C#CCCCOc1cccc(-c2nnc(SCc3ccccn3)o2)c1 | 16 | None |  |  | 
[N-]=[N+]=NCCCOc1ccc(C[S+]([O-])c2nnc(-c3ccc(F)cc3)o2)nc1 (stereo not shown) | 4 |  |  | 31 | 
Brc1ccc(-c2nnc(SCc3ccccn3)o2)cc1 [drawing 212] | 8 |  |  | 31 | 
Fc1ccc(CSc2nnc(-c3ccc(Cl)cc3)o2)cc1 |  |  | None | > 500 | 

SMILES | IC99 [1] [µM] | Against Replicating Mtb IC90 (uM, GFP) [2] | Against carbon starved non-replicating Mtb IC99 (uM, luciferase) [1] | IC90 [2] [µM] | IC90 [1] [µM]
CS(=O)(=O)c1nnc(-c2ccccc2)o1 | 62 |  |  | 250 | 
c1ccc(-c2nnc(SC3CCCCC3)o2)cc1 [drawing 181] | 62 |  |  | > 500 | 
CN1CCCCC1COc1nnc(-c2ccc(Cl)cc2)o1 (stereo not shown) | 500 |  |  | > 500 | 
Fc1ccc(-c2nnc(SCCN3CCC(F)(F)CC3)o2)cc1 |  | None | None |  | 1
Fc1cccc(-c2nnc(SCc3ccccn3)o2)c1 [drawing 216] | 16 |  |  | 31 | 
[N-]=[N+]=NCCOCCNC(=O)CCCn1cc(C[S+]([O-])c2nnc(-c3ccc(F)cc3)o2)nn1 (stereo not shown) | 500 |  |  | 500 | 125
CSc1nnc(-c2ccccc2)o1 |  |  | None | > 250 | 
COCCSc1nnc(-c2ccncc2)o1 | 500 |  |  | > 500 | 
O=C(CSc1nnc(-c2ccccc2)o1)c1ccc(Br)cc1 |  |  | None | > 500 | 
c1ccc(-c2nnc(SCc3ccccn3)o2)cc1 [drawing 177] | 31 |  |  | 100 | 
O=S(=O)(Cc1ccccc1)c1nnc(-c2ccccc2)o1 [drawing 214] | 16 |  |  | 125 | 
Fc1ccc(CSc2nnc(-c3ccccc3)o2)cc1 [drawing 172] |  |  | None | 125 | 
CS(=O)(=O)c1nnc(-c2ccc(Cl)cc2)o1 | 8 |  |  | 125 | 
c1ccc(-c2nnc(SCc3ccncc3)o2)cc1 [drawing 179] | 500 |  |  | 250 | 
Brc1cccc(-c2nnc(SCc3ccccn3)o2)c1 [drawing 217] | 31 |  |  | 62 | 
C#CCSc1nnc(-c2ccc(Cl)cc2)o1 | 16 |  |  | 31 | 
COCCSc1nnc(-c2ccc(C)cc2)o1 | 31 |  |  | 31 | 
Oc1cccc(-c2nnc(SCc3ccccn3)o2)c1 | 62 |  |  | 125 | 
[N-]=[N+]=NCCOCCNC(=O)CCCOc1ccc(C[S+]([O-])c2nnc(-c3ccc(Cl)cc3)o2)nc1 (stereo not shown) [drawing 240] | 16 |  |  | 250 | 
